According to ChEMBL document CHEMBL4699398, “The synthesis and biological evaluation of sanguinarine derivatives as anti-non-small cell lung cancer agents” (RSC Med Chem, 2020):

Assays:
NCI-H1975 = assay: Antiproliferative activity against human H1975 cells assessed as inhibition of cell growth incubated for 72 hrs by CCK-8 assay; details: NCI-H1975, 72 h
A549 = assay: Antiproliferative activity against human A549 cells assessed as inhibition of cell growth incubated for 72 hrs by CCK-8 assay; details: A549, 72 h
HeLa = assay: Antiproliferative activity against human HeLa cells assessed as reduction in cell viability after 24 hrs by MTT assay; type: functional, cell-based

Structure (SMILES) | IC50 (NCI-H1975) [nM] | IC50 (A549) [nM] | IC50 (HeLa) [nM]
CC(C)NC1c2c(ccc3c2OCO3)-c2ccc3cc4c(cc3c2N1C)OCO4 (centres undefined) | 960 | 1460 | –
CN1c2c(ccc3cc4c(cc23)OCO4)-c2ccc3c(c2C1NC1CCCC1)OCO3 (centres undefined) | 1570 | 1970 | –
c1cc2c(cnc3c4cc5c(cc4ccc23)OCO5)c2c1OCO2 | > 30000 | > 30000 | –
CC1c2c(ccc3c2OCO3)-c2ccc3cc4c(cc3c2N1C)OCO4 (centres undefined) | > 30000 | > 30000 | –
CCCN1Cc2c(ccc3c2OCO3)-c2ccc3cc4c(cc3c21)OCO4 | > 30000 | > 30000 | –
CN1Cc2c(ccc3c2OCO3)-c2ccc3cc4c(cc3c21)OCO4 [DIHYDROSANGUINARINE] | 19100 | > 30000 | –
CCCNC1c2c(ccc3c2OCO3)-c2ccc3cc4c(cc3c2N1C)OCO4 (centres undefined) | 1000 | 1480 | –
C[n+]1cc2c3c(ccc2c2ccc4cc5c(cc4c21)OCO5)OCO3 [SANGUINARIUM CHLORIDE] | 1320 | 1590 | 2430
CCNC1c2c(ccc3c2OCO3)-c2ccc3cc4c(cc3c2N1C)OCO4 (centres undefined) | 940 | 1250 | –
CN1c2c(ccc3cc4c(cc23)OCO4)-c2ccc3c(c2C1NCc1ccccc1)OCO3 (centres undefined) | 3130 | 4350 | –
Cn1c(=O)c2c3c(ccc2c2ccc4cc5c(cc4c21)OCO5)OCO3 | > 30000 | > 30000 | –
COC1c2c(ccc3c2OCO3)-c2ccc3cc4c(cc3c2N1C)OCO4 (centres undefined) | 1170 | 1590 | –
CCN1Cc2c(ccc3c2OCO3)-c2ccc3cc4c(cc3c21)OCO4 | > 30000 | > 30000 | –
CN1c2c(ccc3cc4c(cc23)OCO4)-c2ccc3c(c2C1C#N)OCO3 (centres undefined) | 790 | 960 | –
